# Results taken from patent US20190374505A1, “METHODS AND COMPOSITIONS FOR THE TREATMENT OF NON-ALCOHOLIC STEATOHEPATITIS” (Vivus, Inc., priority 2016, published 2019).
# Values joined by “and” are separate entries in the source; they are usually repeats but may differ in a detail not shown here. Equal entries are not always repeated.
# Assays:
# Type in all cases: in vivo, mouse
# [1] = test system: STAM model mice (NASH); experiment: STAM model mice: blood biochemistry and liver triglyceride content; details: day of sacrifice, mean ± SD
# Text: (§1) Having observed the improvements in markers that correlate with liver disease in patients treated with PHEN/TPM, animal studies in the STAM model for NAFLD/NASH were preformed to look more specifically at liver morphology and function following treatment with PHEN/TPM. The STAM model was selected because it allows a specific examination of the effects of drug treatment, in this example PHEN/TPM, on non-alcoholic steatohepatitis. The STAM model is a non-genetic animal model of human NASH with features of diabetic background, increased. NAFLD activity score (NAS), perivenular and pericellular fibrosis in Zone 3, and a high incidence of hepatocellular carcinoma (Fujii M. et al., Med. Mel. Morphol., 2013; 46: 141). The model is induced by a combination of chemical and dietary interventions in the mice. In this example, NASH was induced in 30 male mice by a single subcutaneous injection of 200 μg streptozotocin (STZ, Sigma-Aldrich, USA) solution 2 days after birth and feeding with a high fat diet (HFD, 57 kcal % fat, cat#: HFD32, CLEA Japan, Japan) after 4 weeks of age. The mice were treated with either vehicle, PHEN/TPM or Telmisartan.
# Phentermine (PHEN) and Topiramate (TPM) were weighed and dissolved in distilled water and 0.5% methylcellulose, respectively. Telmisartan (MICARDIS®) was purchased from Boehringer Ingelheim GmbH (Germany) and suspended in milli-Q water. Vehicle, PHEN and TPM were orally administered in a volume of 5 mL/kg. Telmisartan was orally administered in a volume of 10 mL/kg. PHEN was administered at a dose of 15 mg/kg once daily. […]
# Measurement of blood biochemistry. Non-fasting blood glucose was measured in whole blood using LIFE CHECK (EIDrA, Japan). […] The plasma ALT (alanine aminotransferase) and AST (aspartate aminotransferase) levels were measured by FUJI DRI CHEM 7000 (FujiFilm, Japan) Measurement of liver triglyceride content Liver total lipid-extracts were obtained by Folch's method (Folch J. el al., J. Bioi. Chern. 1957; 226: 497). […] Liver triglyceride levels were measured by Triglyceride E-test (Wako Pure Chemical Industries, Japan). […]
# [2] = test system: liver mRNA of TNF-α, TIMP-1, Alpha-SMA, MMP-9, collagen type 1, MCP-1; experiment: STAM model mice: liver gene expression analysis (real-time PCR, normalized to 36B4); details: vehicle average = 1.0, mean ± SD
# Text: as §1
# (§2) Phentermine (PHEN) and Topiramate (TPM) were weighed and dissolved in distilled water and 0.5% methylcellulose, respectively. Telmisartan (MICARDIS®) was purchased from Boehringer Ingelheim GmbH (Germany) and suspended in milli-Q water. Vehicle, PHEN and TPM were orally administered in a volume of 5 mL/kg. Telmisartan was orally administered in a volume of 10 mL/kg. PHEN was administered at a dose of 15 mg/kg once daily. TPM was administered at a dose of 100 mg/kg once daily. Telmisartan was administered at a dose of 5 mg/kg once daily.
# Total RNA was extracted from liver samples using RNAiso (Takara Bio, Japan) and SV total RNA isolation kit (Promega, USA) according to the manufacturer's instructions. One/1 g of RNA was reverse-transcribed using a reaction mixture containing 4.4 mM MgCb (F. Hoffmann-La Roche, Switzerland), 40 U RNase inhibitor (Toyobo, Japan), 0.5 mM dNTP (Promega), 6.28 µM random hexamer (Promega), 5× first strand buffer (Promega), 10 mM dithiothreitol (Invitrogen, USA) and 200 U MMLV-RT (Invitrogen) in a final volume of 20 IIL. The reaction was carried out for 1 hour at 37° C., followed by 5 minutes at 99° C. Real-time PCR was performed using real-time PCR DICE and SYBR premix Tag (Takara Bio). To calculate the relative mRNA expression level, the expression of each gene was normalized to that of reference gene 36B4 (gene symbol: RplpO). To express data as fold-change relative to the Vehicle-control group, the data were standardized so that average values of the Vehicle group become 1.0.
# (§3) The three treatment groups were as follows: Group 1: Vehicle: 10 NASH mice were orally administered vehicle [distilled water and 0.5% methylcellulose in a volume of 5 mL./kg, respectively] once daily from 5 to 11 weeks of age. Group 2: PHEN/WM. 10 NASH mice were orally administered distilled water supplemented with PHEN at a dose of 15 mg/kg, and 0.5% methylcellulose supplemented with TPM at a dose of 100 mg/kg once daily from 5 to 11 weeks of age. Group 3: Telmisartan. 10 NASH mice were orally administered pure water supplemented with Telmisartan at a dose of 5 mg/kg once daily from 5 to 11 weeks of age.
# The values in Table 7 were calculated by dividing Target by 36B4 for each animal. An average was calculated in the vehicle group. The initial calculations of Target/36B4 was divided by the vehicle average so the vehicle average becomes 1.0. This second Target/36B4 represents a fold-change of Target gene relative to the vehicle average.
# [3] = test system: STAM model mice (NASH); experiment: STAM model mice: viability, body weight, food consumption, liver weight
# Text: as §1, §2
# C57BL16 mice (15-day-pregnant female) were obtained from Japan SLC (Japan) and were housed in accordance with the Japanese Pharmacological Society Guidelines for Animal Use. The animals were maintained in a SPF facility under controlled conditions of temperature (23±2° C.), humidity (45±10%), lighting (12-hour artificial light and dark cycles; light from 8:00 to 20:00) and air exchange. A high pressure was maintained in the experimental room to prevent contamination of the facility. The animals were housed in TPX cages (CLEA Japan) with a maximum of 4 mice per cage. Sterilized Paper-Clean (Japan SLC) was used for bedding and replaced once a week.
# Sterilized solid HFD was provided ad libitum, being placed in a metal lid on the top of the cage. Pure water was provided ad libitum from a water bottle equipped with a rubber stopper and a sipper tube. Water bottles were replaced once a week, cleaned and sterilized in an autoclave and reused. Mice were identified by numbers engraved on earrings. Each cage was labeled with a specific identification code.
# as §3, with “10 NASH mice were orally administered pure water supplemented with Telmisartan at a dose of 5 mg/kg once daily from 5 to 11 weeks of age.” left out
# The viability, clinical signs and behavior were monitored daily. […]
# The body weight of each mouse was recorded daily and food consumption was recorded 3 times weekly during the treatment period. […]
# [4] = test system: STAM model mice (NASH); experiment: STAM model mice: liver histopathology (HE/NAS, Sirius red, Oil red, F4/80)
# Text: as §1, §2
# Histopathology analysis. For HE staining, sections were cut from paraffin blocks of liver tissue prefixed in Bouin's solution and stained with Lillie-Mayers Hematoxylin (Muto Pure Chemicals, japan) and eosin solution (Wako Pure Chemical industries). NAS was calculated according to the criteria of Kleiner (Kleiner D E. et al., Hepatology, 2005; 41: 1313). To visualize collagen deposition, Bouin's fixed liver sections were stained using picro-Sirius red solution (Waldeck, Gelman)). To visualize macro- and microvesicular fat, sections were cut from frozen liver tissues embedded in Tissue-Tek O.C.T. compound (Sakura Finetek Japan, Japan), and stained with Oil Red 0 (SigmaAldrich). For immunohistochemistry, sections were cut from frozen liver tissues embedded in Tissue-Tek O.C.T. compound and fixed in acetone. Endogenous peroxidase activity was blocked using 0.03% H2O2 for 5 minutes, followed by incubation with Block Ace (Dainippon Sumitomo Pharma, Japan) for 10 minutes. The sections were incubated with a 200-fold dilution of anti-F4/80 antibody (BMA Biomedicals, Switzerland) 1 hour at room temperature. After incubation with secondary antibody (HRP-Goat anti-rat antibody, Invitrogen, USA), enzyme-substrate reactions were performed using 3, 3′-diaminobenzidine/H202 solution (Nichirei, Japan). For quantitative analyses of fibrosis, inflammation and fat deposition areas, bright field images of Sirius red-stained, F4/80-immunostained and oil red-stained sections were captured around the central vein using a digital camera (DFC280; Leica, Germany) at 200-fold magnification, and the positive areas in 5 fields/section were measured using ImageJ software (National Institute of Health, USA).
# as §3, with “10 NASH mice were orally administered pure water supplemented with Telmisartan at a dose of 5 mg/kg once daily from 5 to 11 weeks of age.” left out
# [5] = day of sacrifice, mean ± SD, PHEN 15 + TPM 100 mg/kg (n=6), Telmisartan 5 mg/kg (n=8)
structure (smiles),measurement,setting,value
CCCc1nc2c(C)cc(-c3nc4ccccc4n3C)cc2n1Cc1ccc(-c2ccccc2C(=O)O)cc1 [Telmisartan],Plasma ALT,[1],39 U/L and 39 ± 34 U/L
same,Plasma AST,[1],229 U/L and 229 ± 176 U/L
same,Whole blood glucose,[1]; non-fasting,768 mg/dL and 768 ± 199 mg/dL
same,"Alpha-SMA/36B4 mRNA expression, fold change relative to Vehicle group",[2],0.54 and 0.54 ± 0.40
same,"Collagen Type 1/36B4 mRNA expression, fold change relative to Vehicle group",[2],0.80 and 0.80 ± 0.11
same,"MCP-1/36B4 mRNA expression, fold change relative to Vehicle group",[2],0.44 and 0.44 ± 0.23
same,"MMP-9/36B4 mRNA expression, fold change relative to Vehicle group",[2],1.21 and 1.21 ± 0.36
same,"TIMP-1/36B4 mRNA expression, fold change relative to Vehicle group",[2],0.66 and 0.66 ± 0.46
same,"TNF-α/36B4 mRNA expression, fold change relative to Vehicle group",[2],0.75 and 0.75 ± 0.17
same,Mean body weight reduced compared to the Vehicle group,[3]; day of sacrifice,11.4%
same,Liver-to-body weight ratio,"[3]; day of sacrifice, mean ± SD",6.2 ± 1.1%
same,Body weight,[3]; [5],18.7 g and 18.7 ± 1.7 g
same,Liver weight,[3]; [5],1156 ± 210 mg
same,Mice found dead before reaching week 11,"[3]; treatment period 5 to 11 weeks of age, oral once daily, PHEN 15 mg/kg + TPM 100 mg/kg, Telmisartan 5 mg/kg",Two out of 10
same,Fibrosis area (Sirius-red),[4]; mean ± SD,0.81% and 0.81 ± 0.39%
same,Inflammation area (F4/80),[4]; mean ± SD,1.48 ± 0.76%
same,Number of mice with Steatosis score 0,[4]; score 0 = <5%,2
same,Number of mice with Lobular Inflammation score 0,[4]; score 0 = No foci,2
same,Number of mice with Steatosis score 1,[4]; score 1 = 5-33%,6
same,Number of mice with Lobular Inflammation score 1,[4]; score 1 = <2 foci/200x,2
same,Number of mice with Hepatocyte Ballooning score 1,[4]; score 1 = Few balloon cells,4
same,Number of mice with Lobular Inflammation score 2,[4]; score 2 = 2-4 foci/200x,4
same,Number of mice with Hepatocyte Ballooning score 2,[4]; score 2 = Many cells/prominent ballooning,4
